According to publication PMC7807051, “Modulation of cAMP metabolism for CFTR potentiation in human airway epithelial cells” (Scientific Reports, 2021):
Read-outs that look alike come from different tables or passages of the source.

Assays:
CFTR = test: In vitro CFTR membrane potential assay in Calu-3 cells; format: cell-based, human; conditions: for EC50: Calu-3 cells, cAMP inducer alone
Method: An in vitro CFTR membrane potential assay was performed on Calu-3 cells and primary human bronchial epithelial cells, from two independent donors, cultured at 37 °C as previously described. All human samples were collected from consented individuals under ethics approval granted by Hamilton Integrated Research Ethics Board (Project Number 5099-T).
Calu-3 cells were grown for 21 days on 96-well plates and primary HBECs were grown for 14 days under air–liquid interface conditions on collagen-coated (Sigma-Aldrich) 6.5 mm Transwell Inserts (Corning). All cells were washed with HBSS prior to experimental conditions. After washing with HBSS, cells were loaded with BLUE Membrane Potential Dye (Molecular Devices, #R8042) dissolved in 37 °C chloride-free buffer (NMDG Gluconate Buffer – 150 mM NMDG-gluconate, 3 mM KCl, 10 mM HEPES, pH 7.35, 300 mOsm). Immediately after dye loading, CFTR activity measurements were taken. CFTR activity measurements are fluorescent readouts for detecting ion channel activity. CFTR inhibition was performed with CFTRinh-172 (10 μM) for all experiments to attribute changes in fluorescence as CFTR channel activity. This assay has been validated using proof of concept studies where results obtained from this assay were able to recapitulate findings obtained from direct measurements of ion channel activity using Ussing chambers. At the end of this assay, raw data was exported for statistical analysis.
For Calu-3 cells, measurements were taken during baseline (40 min), cAMP elevation (30 min), and CFTR inhibition (20 min). cAMP elevation was performed using forskolin or isoproterenol (0.0005–50 μM). For assays with ABCC4 or PDE-4 inhibitors, a pre-incubation with the inhibitors (30 min) in the plate reader was performed prior to cAMP elevation. CFTR modulator VX-770 was used at 1 μM. CFTR activity was determined by dividing a single membrane potential peak measurement after the ABCC4 or PDE-4 inhibition and cAMP elevation additions to the stabilized baseline over DMSO control.
For in vitro CFTR membrane potential assays, in Calu-3 cells, values were normalized to the averaged baseline over averaged vehicle (DMSO) control of all biological replicates. SD was calculated using data from biological replicates (n = 4–8). An area under the curve (AUC), half-maximal concentration (EC50), […] (Emax), and baseline analysis was performed for each individual replicate then averaged together. The AUC analysis is an aggregate measure of sensitivity and maximal response, allowing for the observation of the total net responsiveness of the cells. The AUC analysis was done by normalizing the individual replicates to the bottom most value of the averaged vehicle control. In primary HBECs, six independent measurements were taken within a single Transwell insert. The value is the average of at least six measurements. These values were normalized to the averaged baseline over the averaged vehicle (DMSO) control. SD was calculated by treating the six measurements as independent, with additional technical replicates (n = 6–18). An AUC and max peak analysis were performed for each measurement, then averaged together. The max peak analysis was the max CFTR activity achieved during the drug addition step.
In order to compare the independent experiments performed, a fold-change analysis using individual AUC, EC50, and Emax, determined from their respective concentration–response curves, was performed and was normalized to the averaged DMSO vehicle control. A one-way ANOVA with subsequent post-hoc test or a paired t-test was performed. Statistical analysis was performed using GraphPad Prism 6.

ABCC4 [1] = target: T1, ABCC4 (Homo sapiens, UniProt O15439); test: In vitro extracellular cAMP assay of ABCC4 inhibitors in HBEC6-KT cells; format: cell-based; conditions: IBMX 20 μM pre-treatment, forskolin 10 μM, normalized to IBMX + forskolin, read-out: half maximal inhibitory concentration (IC50), extracellular cAMP
T1 construct: ABCC4 was present in both HBEC6-KT and Calu-3 cells at all-time points, indicated by the bands present at 150 kDa; endogenous in cells; host or cells: HBEC6-KT (immortalized human bronchial epithelial cells)
T1 sequence (O15439 1-1325): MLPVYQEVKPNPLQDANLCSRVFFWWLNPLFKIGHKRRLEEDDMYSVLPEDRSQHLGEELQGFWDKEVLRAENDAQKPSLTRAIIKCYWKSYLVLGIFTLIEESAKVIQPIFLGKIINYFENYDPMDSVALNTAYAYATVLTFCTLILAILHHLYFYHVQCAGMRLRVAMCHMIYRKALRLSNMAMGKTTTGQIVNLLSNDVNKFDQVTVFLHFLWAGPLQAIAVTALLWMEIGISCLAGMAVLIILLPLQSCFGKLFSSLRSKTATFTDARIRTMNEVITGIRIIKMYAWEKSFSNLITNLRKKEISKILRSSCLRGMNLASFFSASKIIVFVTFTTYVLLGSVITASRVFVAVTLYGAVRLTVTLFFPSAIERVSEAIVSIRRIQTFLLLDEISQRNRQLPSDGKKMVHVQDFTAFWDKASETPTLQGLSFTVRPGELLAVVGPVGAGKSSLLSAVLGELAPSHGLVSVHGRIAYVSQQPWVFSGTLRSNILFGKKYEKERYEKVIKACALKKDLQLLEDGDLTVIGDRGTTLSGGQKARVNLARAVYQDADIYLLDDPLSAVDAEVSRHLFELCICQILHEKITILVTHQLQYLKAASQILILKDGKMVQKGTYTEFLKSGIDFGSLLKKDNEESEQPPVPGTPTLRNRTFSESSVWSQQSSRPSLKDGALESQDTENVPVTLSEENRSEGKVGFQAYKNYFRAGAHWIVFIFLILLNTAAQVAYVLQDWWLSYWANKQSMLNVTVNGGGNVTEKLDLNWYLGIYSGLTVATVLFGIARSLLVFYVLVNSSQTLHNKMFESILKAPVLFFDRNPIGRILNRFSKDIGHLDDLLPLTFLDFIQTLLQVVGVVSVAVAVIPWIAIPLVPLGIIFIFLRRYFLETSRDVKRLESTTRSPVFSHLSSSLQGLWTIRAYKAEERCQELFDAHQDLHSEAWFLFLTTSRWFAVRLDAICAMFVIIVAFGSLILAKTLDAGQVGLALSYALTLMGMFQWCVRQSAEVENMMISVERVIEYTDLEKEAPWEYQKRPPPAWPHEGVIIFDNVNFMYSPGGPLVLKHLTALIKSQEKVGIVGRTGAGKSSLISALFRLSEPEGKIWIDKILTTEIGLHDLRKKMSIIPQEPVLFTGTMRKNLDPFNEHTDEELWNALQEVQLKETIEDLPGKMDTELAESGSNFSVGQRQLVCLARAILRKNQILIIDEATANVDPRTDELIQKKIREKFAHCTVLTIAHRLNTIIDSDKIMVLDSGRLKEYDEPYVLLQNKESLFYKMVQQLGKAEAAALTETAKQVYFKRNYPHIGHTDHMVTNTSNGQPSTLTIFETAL
Method: (§1) Cells were pretreated with IBMX (20 μM) for 2 h prior to experimental conditions. After the pre-treatment of IBMX, cells were treated with ABCC4 inhibitors (0.01–100 μM) or DMSO for 30 min. Following these exposures, the cells were treated with forskolin (10 μM) for 6 h and cell-culture supernatants were collected for analysis of extracellular cAMP. The negative control was IBMX alone and the positive control was IBMX and forskolin.
(§2) For the in vitro extracellular cAMP assay, values were normalized to the positive control (IBMX and forskolin) and the half maximal inhibitory concentration (IC50) was determined. SD was calculated using data from biological replicates (n = 4–5).
Cell culture supernatants were assessed for cAMP levels 24h post-treatment.

ABCC4 [2] = target: T1, ABCC4; test: In vitro extracellular cAMP assay of ABCC4 inhibitors in Calu-3 cells; format: cell-based; conditions: IBMX 20 μM pre-treatment, forskolin 10 μM, normalized to IBMX + forskolin, read-out: half maximal inhibitory concentration (IC50), extracellular cAMP
Method: Cell culture supernatants were assessed for cAMP levels 24 h post-treatment.
as §1, §2

[3] = Calu-3, forskolin (FSK) curve with agent vs DMSO control
[4] = Calu-3, forskolin (FSK) curve with agent vs DMSO control, VX-770 1 μM, MK-571 1.8 μM, Ceefourin-1 4.8 μM, Roflumilast 1 μM, Rolipram 10 μM, IBMX 100 μM
[5] = Calu-3, isoproterenol (ISO) curve with agent vs DMSO control
[6] = Calu-3, isoproterenol (ISO) curve with agent vs DMSO control, same agent concentrations as E5
[7] = read-out: half maximal effective concentration (EC50), CFTR activity

Structure (SMILES)	Baseline of concentration–response curve, CFTR activity (CFTR; [3])	EC50 of concentration–response curve, CFTR activity (CFTR; [3])	Emax of concentration–response curve, CFTR activity (CFTR; [3])	AUC of concentration–response curve, CFTR activity (CFTR; [4])	Baseline of concentration–response curve, CFTR activity (CFTR; [5])	EC50 of concentration–response curve, CFTR activity (CFTR; [5])	Emax of concentration–response curve, CFTR activity (CFTR; [5])	AUC of concentration–response curve, CFTR activity (CFTR; [6])	IC50 (ABCC4 [1])	IC50 (ABCC4 [2])	EC50 (CFTR; [7])	maximal degree of change for CFTR activity (CFTR; Calu-3, ISO compared with FSK, inducers alone)	EC50 (CFTR; value in picture, no unit, read-out: EC50, CFTR activity (Figure 3))
Cn1c(CSc2nc3ccccc3s2)n[nH]c1=S [Ceefourin-1]	No combination of ABCC4 inhibitor and cAMP-elevating agent changed CFTR activity	No combination of ABCC4 inhibitor and cAMP-elevating agent changed CFTR activity	No combination of ABCC4 inhibitor and cAMP-elevating agent changed CFTR activity	No combination of ABCC4 inhibitor and cAMP-elevating agent changed CFTR activity	No combination of ABCC4 inhibitor and cAMP-elevating agent changed CFTR activity	No combination of ABCC4 inhibitor and cAMP-elevating agent changed CFTR activity	No combination of ABCC4 inhibitor and cAMP-elevating agent changed CFTR activity	No combination of ABCC4 inhibitor and cAMP-elevating agent changed CFTR activity	4800 nM	700 nM			
C=C[C@@]1(C)CC(=O)[C@]2(O)[C@@]3(C)[C@@H](O)CCC(C)(C)[C@@H]3[C@H](O)[C@H](OC(C)=O)[C@@]2(C)O1 [FSK, forskolin]											190 nM		
CC(C)Cn1c(=O)n(C)c(=O)c2[nH]cnc21 [IBMX]				Significant increases	significant increases			Significant increases					
CC(C)NCC(O)c1ccc(O)c(O)c1 (stereo not drawn) [ISO, isoproterenol]											70 nM	greater	66 nM
CN(C)C(=O)CCSC(SCCC(=O)O)c1cccc(/C=C/c2ccc3ccc(Cl)cc3n2)c1 (stereo not drawn) [MK-571]	No combination of ABCC4 inhibitor and cAMP-elevating agent changed CFTR activity	No combination of ABCC4 inhibitor and cAMP-elevating agent changed CFTR activity	No combination of ABCC4 inhibitor and cAMP-elevating agent changed CFTR activity	No combination of ABCC4 inhibitor and cAMP-elevating agent changed CFTR activity	No combination of ABCC4 inhibitor and cAMP-elevating agent changed CFTR activity	No combination of ABCC4 inhibitor and cAMP-elevating agent changed CFTR activity	No combination of ABCC4 inhibitor and cAMP-elevating agent changed CFTR activity	No combination of ABCC4 inhibitor and cAMP-elevating agent changed CFTR activity					
COc1ccc(C2CNC(=O)C2)cc1OC1CCCC1 (stereo not drawn) [Rolipram]	not different	not different	not different	not FSK	not different	not different	not different	significant increases					
